How the values were obtained:
[1] = target: Homeodomain-interacting protein kinase 2 (Homo sapiens) (UniProt Q9H2X6)
[2] = target: Ribosomal protein S6 kinase alpha-6 (Homo sapiens) (UniProt Q9UK32)
[3] = target: T1, Mitogen-activated protein kinase 12 (Homo sapiens) (UniProt P53778)
T1 sequence (whole entry): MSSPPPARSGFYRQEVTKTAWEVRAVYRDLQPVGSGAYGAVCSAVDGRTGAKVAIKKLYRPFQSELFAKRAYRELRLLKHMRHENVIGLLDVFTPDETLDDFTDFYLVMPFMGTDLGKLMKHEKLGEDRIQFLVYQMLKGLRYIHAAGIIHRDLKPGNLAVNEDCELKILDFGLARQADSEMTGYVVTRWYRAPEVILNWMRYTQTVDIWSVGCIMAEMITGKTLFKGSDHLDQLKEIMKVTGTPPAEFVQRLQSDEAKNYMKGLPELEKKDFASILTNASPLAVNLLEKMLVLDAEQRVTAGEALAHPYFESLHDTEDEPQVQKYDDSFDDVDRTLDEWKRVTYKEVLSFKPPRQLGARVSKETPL

[4] = target: Tyrosine-protein kinase JAK1 (Homo sapiens) (UniProt P23458)
Sequence of Tyrosine-protein kinase JAK1 (Homo sapiens) (P23458 whole entry): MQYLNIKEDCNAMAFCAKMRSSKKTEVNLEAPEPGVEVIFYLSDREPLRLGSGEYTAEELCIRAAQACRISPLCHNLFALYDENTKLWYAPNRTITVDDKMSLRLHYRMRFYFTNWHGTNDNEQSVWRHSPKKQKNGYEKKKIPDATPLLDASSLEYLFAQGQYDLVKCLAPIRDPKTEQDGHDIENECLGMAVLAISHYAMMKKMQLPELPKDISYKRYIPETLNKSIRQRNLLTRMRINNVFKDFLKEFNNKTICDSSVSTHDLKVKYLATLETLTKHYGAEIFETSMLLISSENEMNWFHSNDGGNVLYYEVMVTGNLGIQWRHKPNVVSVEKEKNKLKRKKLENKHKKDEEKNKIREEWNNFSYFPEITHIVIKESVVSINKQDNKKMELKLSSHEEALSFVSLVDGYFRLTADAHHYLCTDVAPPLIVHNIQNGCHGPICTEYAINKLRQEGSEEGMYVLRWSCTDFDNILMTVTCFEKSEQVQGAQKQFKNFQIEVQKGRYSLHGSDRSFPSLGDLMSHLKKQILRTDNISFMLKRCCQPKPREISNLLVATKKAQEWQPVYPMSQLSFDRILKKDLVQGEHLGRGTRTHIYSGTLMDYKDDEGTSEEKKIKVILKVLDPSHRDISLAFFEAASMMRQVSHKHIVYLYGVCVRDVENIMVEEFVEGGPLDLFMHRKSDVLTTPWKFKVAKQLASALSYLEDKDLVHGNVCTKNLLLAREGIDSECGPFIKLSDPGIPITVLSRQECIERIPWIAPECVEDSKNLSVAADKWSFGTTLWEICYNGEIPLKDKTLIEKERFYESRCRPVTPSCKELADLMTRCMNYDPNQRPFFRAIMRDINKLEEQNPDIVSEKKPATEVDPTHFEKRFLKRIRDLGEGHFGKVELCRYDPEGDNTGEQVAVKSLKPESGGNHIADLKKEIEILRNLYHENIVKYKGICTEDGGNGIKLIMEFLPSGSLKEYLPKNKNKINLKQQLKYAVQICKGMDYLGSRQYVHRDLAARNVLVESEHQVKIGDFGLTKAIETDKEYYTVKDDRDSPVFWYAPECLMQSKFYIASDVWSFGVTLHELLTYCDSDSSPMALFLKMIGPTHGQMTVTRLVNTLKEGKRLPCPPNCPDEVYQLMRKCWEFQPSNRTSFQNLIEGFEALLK

[5] = target: Serine/threonine-protein kinase MARK1 (Homo sapiens) (UniProt Q9P0L2)
Sequence of Serine/threonine-protein kinase MARK1 (Homo sapiens) (Q9P0L2 whole entry, looked up): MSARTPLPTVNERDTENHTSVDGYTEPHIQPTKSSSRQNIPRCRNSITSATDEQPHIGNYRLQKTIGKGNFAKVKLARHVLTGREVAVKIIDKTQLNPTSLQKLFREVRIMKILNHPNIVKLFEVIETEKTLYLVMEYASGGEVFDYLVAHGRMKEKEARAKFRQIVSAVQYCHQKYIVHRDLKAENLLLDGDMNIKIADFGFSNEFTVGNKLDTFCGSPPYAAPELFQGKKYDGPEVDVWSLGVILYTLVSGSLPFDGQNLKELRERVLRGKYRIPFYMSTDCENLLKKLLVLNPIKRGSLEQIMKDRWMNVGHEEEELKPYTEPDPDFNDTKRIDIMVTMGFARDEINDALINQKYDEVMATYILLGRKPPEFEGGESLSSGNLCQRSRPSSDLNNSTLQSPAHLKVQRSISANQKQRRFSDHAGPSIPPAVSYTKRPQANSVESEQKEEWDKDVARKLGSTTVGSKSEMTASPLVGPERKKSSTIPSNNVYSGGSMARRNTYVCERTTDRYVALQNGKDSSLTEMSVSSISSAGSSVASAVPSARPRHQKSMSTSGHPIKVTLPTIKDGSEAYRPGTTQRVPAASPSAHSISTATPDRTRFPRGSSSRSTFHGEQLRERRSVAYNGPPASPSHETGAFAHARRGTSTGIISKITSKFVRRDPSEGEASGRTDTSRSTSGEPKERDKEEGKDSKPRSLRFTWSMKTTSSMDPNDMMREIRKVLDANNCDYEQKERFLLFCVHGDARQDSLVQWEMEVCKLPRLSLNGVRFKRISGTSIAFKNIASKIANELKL

[6] = target: T2, Serine/threonine-protein kinase NLK (Homo sapiens) (UniProt Q9UBE8)
T2 sequence (whole entry): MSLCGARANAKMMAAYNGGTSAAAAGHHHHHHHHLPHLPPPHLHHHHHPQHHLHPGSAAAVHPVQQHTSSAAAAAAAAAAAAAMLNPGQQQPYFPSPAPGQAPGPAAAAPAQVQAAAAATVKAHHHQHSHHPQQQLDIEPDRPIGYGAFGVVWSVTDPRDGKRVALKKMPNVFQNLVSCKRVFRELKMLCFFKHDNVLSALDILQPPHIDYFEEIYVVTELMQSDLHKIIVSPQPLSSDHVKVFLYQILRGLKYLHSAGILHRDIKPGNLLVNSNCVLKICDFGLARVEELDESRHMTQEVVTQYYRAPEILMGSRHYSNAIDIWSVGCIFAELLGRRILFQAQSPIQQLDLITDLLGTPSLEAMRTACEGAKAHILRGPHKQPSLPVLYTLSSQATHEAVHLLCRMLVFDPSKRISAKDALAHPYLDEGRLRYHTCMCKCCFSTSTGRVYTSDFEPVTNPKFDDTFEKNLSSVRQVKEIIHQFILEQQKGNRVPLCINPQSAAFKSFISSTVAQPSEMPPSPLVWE

[7] = target: Serine/threonine-protein kinase 35 (Homo sapiens) (UniProt Q8TDR2)
Sequence of Serine/threonine-protein kinase 35 (Homo sapiens) (Q8TDR2 whole entry): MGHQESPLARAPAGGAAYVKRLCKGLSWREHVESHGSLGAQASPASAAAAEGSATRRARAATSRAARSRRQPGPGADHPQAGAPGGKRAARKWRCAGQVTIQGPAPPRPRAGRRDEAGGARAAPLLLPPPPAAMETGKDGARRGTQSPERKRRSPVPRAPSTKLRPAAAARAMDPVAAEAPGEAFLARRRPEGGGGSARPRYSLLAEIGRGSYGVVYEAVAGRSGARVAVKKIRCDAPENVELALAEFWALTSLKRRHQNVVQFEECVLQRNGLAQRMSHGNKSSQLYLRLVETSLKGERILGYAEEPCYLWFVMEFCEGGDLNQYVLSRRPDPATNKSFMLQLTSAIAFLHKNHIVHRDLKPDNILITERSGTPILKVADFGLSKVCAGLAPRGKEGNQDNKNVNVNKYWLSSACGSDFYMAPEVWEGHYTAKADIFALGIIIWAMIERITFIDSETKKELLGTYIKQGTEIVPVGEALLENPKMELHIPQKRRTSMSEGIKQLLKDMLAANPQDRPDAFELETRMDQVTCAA

[8] = target: T3, Alpha-2B adrenergic receptor (Homo sapiens) (UniProt P18089); conditions: Compound concentration 10.0 uM
T3 sequence (whole entry): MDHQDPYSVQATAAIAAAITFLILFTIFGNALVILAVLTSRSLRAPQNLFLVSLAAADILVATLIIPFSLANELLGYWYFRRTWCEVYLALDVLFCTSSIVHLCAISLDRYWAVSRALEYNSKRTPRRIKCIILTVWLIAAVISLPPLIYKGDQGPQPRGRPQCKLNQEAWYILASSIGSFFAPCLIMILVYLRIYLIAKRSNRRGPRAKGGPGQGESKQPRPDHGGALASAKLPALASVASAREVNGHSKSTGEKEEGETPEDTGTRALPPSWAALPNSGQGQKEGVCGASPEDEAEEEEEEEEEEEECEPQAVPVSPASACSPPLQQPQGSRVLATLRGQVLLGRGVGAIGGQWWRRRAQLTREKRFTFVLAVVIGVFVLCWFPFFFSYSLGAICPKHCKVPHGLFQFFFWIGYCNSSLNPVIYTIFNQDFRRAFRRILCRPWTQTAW

[9] = target: Phosphatidylinositol 5-phosphate 4-kinase type-2 gamma (Homo sapiens) (UniProt Q8TBX8)
Sequence of Phosphatidylinositol 5-phosphate 4-kinase type-2 gamma (Homo sapiens) (Q8TBX8 whole entry): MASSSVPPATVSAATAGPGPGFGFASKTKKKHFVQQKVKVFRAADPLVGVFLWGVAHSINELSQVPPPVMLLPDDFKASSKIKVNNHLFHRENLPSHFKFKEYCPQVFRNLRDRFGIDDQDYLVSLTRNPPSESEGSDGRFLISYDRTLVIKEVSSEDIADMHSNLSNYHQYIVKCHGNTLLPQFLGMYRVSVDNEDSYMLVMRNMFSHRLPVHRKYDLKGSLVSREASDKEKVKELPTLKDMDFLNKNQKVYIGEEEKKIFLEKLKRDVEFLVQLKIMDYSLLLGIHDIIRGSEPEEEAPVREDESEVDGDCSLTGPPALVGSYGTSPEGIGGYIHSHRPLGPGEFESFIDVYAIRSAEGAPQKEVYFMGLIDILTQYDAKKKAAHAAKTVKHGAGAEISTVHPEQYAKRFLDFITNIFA

[10] = target: Testis-specific serine/threonine-protein kinase 1 (Homo sapiens) (UniProt Q9BXA7)
[11] = target: Casein kinase I isoform gamma-2 (Homo sapiens) (UniProt P78368)
[12] = target: Serine/threonine-protein kinase 10 (Homo sapiens) (UniProt O94804)
[13] = target: T4, Mitogen-activated protein kinase kinase kinase 2 (Homo sapiens) (UniProt Q9Y2U5)
T4 sequence (whole entry): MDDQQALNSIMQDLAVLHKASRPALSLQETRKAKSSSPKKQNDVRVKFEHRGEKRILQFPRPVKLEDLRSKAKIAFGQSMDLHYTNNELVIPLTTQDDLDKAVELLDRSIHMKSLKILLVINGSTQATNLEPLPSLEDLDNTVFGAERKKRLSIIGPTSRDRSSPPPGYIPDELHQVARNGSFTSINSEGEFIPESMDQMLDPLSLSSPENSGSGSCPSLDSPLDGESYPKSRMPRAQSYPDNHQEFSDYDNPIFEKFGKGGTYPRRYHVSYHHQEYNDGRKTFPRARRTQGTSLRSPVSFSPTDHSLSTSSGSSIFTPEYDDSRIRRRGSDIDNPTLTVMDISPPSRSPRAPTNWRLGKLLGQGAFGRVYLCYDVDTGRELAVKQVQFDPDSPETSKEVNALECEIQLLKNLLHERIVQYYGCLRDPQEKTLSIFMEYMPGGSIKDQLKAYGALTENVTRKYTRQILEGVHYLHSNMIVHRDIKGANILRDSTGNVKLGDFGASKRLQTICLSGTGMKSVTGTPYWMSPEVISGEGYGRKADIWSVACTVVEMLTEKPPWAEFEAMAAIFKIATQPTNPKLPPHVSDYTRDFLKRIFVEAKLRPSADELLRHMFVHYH

[14] = target: RAC-gamma serine/threonine-protein kinase (Homo sapiens) (UniProt Q9Y243)
[15] = Compound concentration 1000.0 nM
[16] = Compound concentration 100.0 nM

Sequence of Ribosomal protein S6 kinase alpha-6 (Homo sapiens) (Q9UK32 whole entry): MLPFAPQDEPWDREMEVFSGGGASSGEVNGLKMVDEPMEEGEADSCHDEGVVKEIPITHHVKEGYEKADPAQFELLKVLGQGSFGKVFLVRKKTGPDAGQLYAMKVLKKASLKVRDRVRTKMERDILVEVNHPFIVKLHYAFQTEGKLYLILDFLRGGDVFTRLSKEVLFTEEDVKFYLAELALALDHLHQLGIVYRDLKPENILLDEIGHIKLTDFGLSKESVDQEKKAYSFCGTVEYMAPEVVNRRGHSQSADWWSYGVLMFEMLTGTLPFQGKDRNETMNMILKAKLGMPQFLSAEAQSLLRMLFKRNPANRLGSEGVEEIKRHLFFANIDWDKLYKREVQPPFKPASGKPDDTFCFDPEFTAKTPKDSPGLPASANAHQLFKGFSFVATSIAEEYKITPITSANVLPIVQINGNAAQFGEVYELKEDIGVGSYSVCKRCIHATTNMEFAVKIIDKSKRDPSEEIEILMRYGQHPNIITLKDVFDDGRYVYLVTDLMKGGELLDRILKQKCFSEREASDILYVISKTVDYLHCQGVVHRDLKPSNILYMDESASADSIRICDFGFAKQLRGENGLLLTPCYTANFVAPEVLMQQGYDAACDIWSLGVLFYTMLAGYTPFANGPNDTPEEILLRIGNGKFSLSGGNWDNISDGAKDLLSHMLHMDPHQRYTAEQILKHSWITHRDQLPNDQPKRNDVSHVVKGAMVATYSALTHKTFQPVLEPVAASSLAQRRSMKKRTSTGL
Sequence of Homeodomain-interacting protein kinase 2 (Homo sapiens) (Q9H2X6 whole entry, looked up): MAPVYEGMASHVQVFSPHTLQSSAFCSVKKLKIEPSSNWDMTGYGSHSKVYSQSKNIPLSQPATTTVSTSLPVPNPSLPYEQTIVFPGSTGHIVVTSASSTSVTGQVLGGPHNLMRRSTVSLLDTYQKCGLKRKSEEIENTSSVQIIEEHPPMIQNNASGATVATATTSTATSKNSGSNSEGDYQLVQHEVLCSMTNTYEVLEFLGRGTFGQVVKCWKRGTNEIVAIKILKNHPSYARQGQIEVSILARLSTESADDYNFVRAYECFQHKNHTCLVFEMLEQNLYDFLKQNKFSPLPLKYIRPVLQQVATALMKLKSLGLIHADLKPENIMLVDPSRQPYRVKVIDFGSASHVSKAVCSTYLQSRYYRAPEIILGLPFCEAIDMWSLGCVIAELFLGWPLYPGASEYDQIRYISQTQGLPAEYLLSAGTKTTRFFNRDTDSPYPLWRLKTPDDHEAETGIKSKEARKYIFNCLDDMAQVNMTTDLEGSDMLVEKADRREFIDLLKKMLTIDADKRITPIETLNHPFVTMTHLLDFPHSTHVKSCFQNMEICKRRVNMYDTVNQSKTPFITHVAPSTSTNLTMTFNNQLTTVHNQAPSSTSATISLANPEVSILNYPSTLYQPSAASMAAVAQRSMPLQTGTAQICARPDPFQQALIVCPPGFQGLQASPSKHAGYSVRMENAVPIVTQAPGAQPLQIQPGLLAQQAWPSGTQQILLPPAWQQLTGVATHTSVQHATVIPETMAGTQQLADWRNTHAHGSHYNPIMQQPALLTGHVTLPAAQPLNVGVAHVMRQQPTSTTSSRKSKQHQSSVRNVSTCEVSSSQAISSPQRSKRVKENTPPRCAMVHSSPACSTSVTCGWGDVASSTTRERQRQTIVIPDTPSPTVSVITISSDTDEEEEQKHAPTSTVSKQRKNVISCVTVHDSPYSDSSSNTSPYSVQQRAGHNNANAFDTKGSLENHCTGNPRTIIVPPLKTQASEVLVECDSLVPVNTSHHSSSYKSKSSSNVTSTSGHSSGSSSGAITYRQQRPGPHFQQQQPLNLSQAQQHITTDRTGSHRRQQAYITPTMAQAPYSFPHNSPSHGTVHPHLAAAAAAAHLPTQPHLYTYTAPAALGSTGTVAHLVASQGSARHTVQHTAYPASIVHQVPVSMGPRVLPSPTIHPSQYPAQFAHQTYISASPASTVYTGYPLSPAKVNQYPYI

C[C@@H]1CN(c2cc(-c3nn(C)c4ccc(OC5(C)CC5)cc34)ncn2)C[C@H](C)O1 [MLi-2-NC]
inactive: residual activity [1, 15] 74% | residual activity [2, 15] 79% | residual activity [3, 15] 100% | residual activity [4, 15] 100% | residual activity [5, 15] 100% | residual activity [6, 15] 96% | residual activity [7, 15] 100% | inhibition [8] 27.2% | residual activity [9, 15] 98% | residual activity [10, 15] 99% | residual activity [11, 15] 100% | residual activity [12, 15] 91% | residual activity [13, 15] 83% | residual activity [14, 15] 100%

C[C@@H]1CN(c2cc(-c3n[nH]c4ccc(OC5(C)CC5)cc34)ncn2)C[C@H](C)O1 [MLi-2]
inactive: residual activity [1, 16] 80% | residual activity [2, 16] 85% | residual activity [3, 16] 96% | residual activity [4, 16] 88% | residual activity [5, 16] 100% | residual activity [6, 16] 100% | residual activity [7, 16] 85% | inhibition [8] 6.1% | residual activity [9, 16] 90% | residual activity [10, 16] 72% | residual activity [11, 16] 100% | residual activity [12, 16] 83% | residual activity [13, 16] 73% | residual activity [14, 16] 86%

From ChEMBL document CHEMBL4507291 (2021)
